Measurements: patent US11572394B2, “Peptides for targeting LRP6-overexpressed cells” (PASTEUR INSTITUTE OF IRAN, priority 2020, dated 2023)
Where a SMILES comes first, the peptide text is derived from it. Bridges are numbered along the chain shown (N, C = ends). Where no end group is shown, it is not given here.

B1: Wnt3a: Wnt3a protein, positive control of the Wnt signaling pathway (protein, UniProt P56704 19-352, looked up)
Protein Wnt-3a: SYPIWWSLAVGPQYSSLGSQPILCASIPGLVPKQLRFCRNYVEIMPSVAEGIKIGIQECQHQFRGRRWNCTTVHDSLAIFGPVLDKATRESAFVHAIASAGVAFAVTRSCAEGTAAICGCSSRHQGSPGKGWKWGGCSEDIEFGGMVSREFADARENRPDARSAMNRHNNEAGRQAIASHMHLKCKCHGLSGSCEVKTCWWSQPDFRAIGDFLKDKYDSASEMVVEKHRESRGWVETLRPRYTYFKVPTERDLVYYEASPNFCEPNPETGSFGTRDRTCNVSSHGIDGCDLLCCGRGHNARAERRREKCRCVFHWCCYVSCQECTRVYDVHTCK
B2: Wnt5a: Wnt5a, effective ligand for non-canonical Wnt signaling pathway, positive control (protein, UniProt P41221 62-380, looked up)
Protein Wnt-5a: IIGAQPLCSQLAGLSQGQKKLCHLYQDHMQYIGEGAKTGIKECQYQFRHRRWNCSTVDNTSVFGRVMQIGSRETAFTYAVSAAGVVNAMSRACREGELSTCGCSRAARPKDLPRDWLWGGCGDNIDYGYRFAKEFVDARERERIHAKGSYESARILMNLHNNEAGRRTVYNLADVACKCHGVSGSCSLKTCWLQLADFRKVGDALKEKYDSAAAMRLNSRGKLVQVNSRFNSPTTQDLVYIDPSPDYCVRNESTGSLGTQGRLCNKTSEGMDGCELMCCGRGYDQFKTVQTERCHCKFHWCCYVKCKKCTEIVDQFVCK

How the values were obtained:
Format in all cases: cell-based, human
SW480 [1] = test: Annexin V/PI flow cytometry apoptosis assay; settings: 24 hours, p<0.05; for cell death of SW480 compared with HCT116 cell line: 1 mM; for cell death compared with HUVEC cell line: SW480, 1 mM
Procedure: (§1) In this example, the apoptotic effect of exemplary peptides on cancer cells was examined by analyzing the number of apoptotic cells in HCT116 and SW480 and HUVEC cell lines before and after treatment with 1 mM of each exemplary peptide for 24 hours. Annexin V and propidium iodide (PI) staining were used to evaluate the apoptosis induced by treatment with exemplary peptides in each cell line. Stained cells may be counted by flow cytometry to calculate the percentage of apoptosis (Annexin V positive and PI negative) and necrosis percentage (Annexin V positive and […]) for each cell line.
(§2) The percentage of Annexin V positive and PI negative cells were considered early apoptosis, and the percentage of both Annexin positive and PI-positive cells was considered late apoptosis and necrosis. The sum of these two groups of cells was considered as the cell death rate.

[2] = system: Wnt signaling pathway, SW480 cell line; test: Real-time PCR of LRP6 and downstream genes of the Wnt signaling pathway; settings: treated against untreated
Procedure: (§3) In this example, the effect of exemplary peptides on the expression of LRP6 and downstream genes of the Wnt signaling pathway, such as β-catenin, cyclin D1, and C-MYC, was evaluated at transcription level using real-time PCR and at translation level using Western blotting. The Gapdh gene was used as the reference gene. The expression fold change of more than 2 times (treated cell against untreated cell) was defined as increasing expression, and cases with a fold change of 0.5 to 2 were unchanged, and cases with expression fold change less than 0.5 were considered as a reduction in expression.

[3] = system: Wnt signaling pathway, HCT116 cell line; test: as above; settings: treated against untreated
Procedure: as §3

[4] = system: Wnt signaling pathway, HUVEC cell line; test: as above; settings: treated against untreated
Procedure: as §3

[5] = system: Wnt signaling pathway, SW480 cell line; test: Western blotting of LRP6 and β-catenin proteins with signal densitometry; settings: SW480, Western blot signal densitometry
Procedure: as §3
(§4) Also, the effect of exemplary peptides on the levels of LRP6 and β-catenin proteins in the β-catenin/Wnt signaling pathway was investigated by Western blotting. Also, each protein's relative expression was determined through signal densitometry of each Western blot band.

[6] = system: Wnt signaling pathway, HCT116 cell line; test: as above; settings: HCT116, Western blot signal densitometry
Procedure: as §3, §4

HCT116 [7] = test: Annexin V/PI flow cytometry apoptosis assay; settings: 24 hours, p<0.05; for cell death compared with HUVEC cell line: HCT116, 1 mM
Procedure: as §1, §2

[8] = system: Wnt signaling pathway, HUVEC cell line; test: Western blotting of LRP6 and β-catenin proteins with signal densitometry; settings: Western blot signal densitometry
Procedure: as §3
Also, the effect of exemplary peptides on the levels of LRP6 and β-catenin proteins in the β-catenin/Wnt signaling pathway was investigated by Western blotting. Also, each protein's relative expression was determined through signal densitometry of each Western blot band. FIG. 11A illustrates relative expression β-actin, β-catenin, and LRP6 in SW480, HCT116, and HUVEC cell lines, consistent with one or more exemplary embodiments of the present disclosure. Referring to FIG. 11A, the relative expressions of β-catenin and LRP6 in SW480 and HCT116 were higher than HUVEC as a normal cell.

SW480 [9] = test: Cell cycle analysis by flow cytometry (DNA content); settings: SW480, 24 hours
Procedure: (§5) In this example, the effect of exemplary peptides on the cell cycle was determined through flow cytometry and measurement of DNA content in cells. In this experiment, HCT116, SW480, and HUVEC cell lines were cultured in 24-well plates and treated with 1 mM of each exemplary peptide for 24 hours.
(§6) The cell proliferation index may be calculated by dividing the percentage of cells present in the S and G2 stages by the percentage of cells in the G1, S, and G2 stages. […] Also, the proliferation index in SW480 and HCT116 cell lines decreased after treatment with exemplary peptides (SEQ ID NOs: 1-4). On the other hand, the decrease in the proliferation index of HUVEC cells was smaller than that of SW480 and HCT116 cell lines.

HCT116 [10] = test: as above; settings: HCT116, 24 hours
Procedure: as §5, §6

HUVEC = test: as above; settings: 24 hours
Procedure: as §5, §6

Molecule	cell death of SW480 compared with HCT116 cell line (SW480 [1])	cell death compared with HUVEC cell line (SW480 [1])	expression of C-MYC gene [2]	expression of LRP6 gene [2]	expression of cyclin D1 gene [2]	expression of β-catenin gene [2]	expression of C-MYC gene [3]	expression of LRP6 gene [3]	expression of cyclin D1 gene [3]	expression of β-catenin gene [3]	expression of C-MYC gene [4]	expression of LRP6 gene [4]	expression of cyclin D1 gene [4]	expression of β-catenin gene [4]	decrease of β-catenin protein level [5]	decrease of β-catenin protein level [6]	cell death compared with HUVEC cell line (HCT116 [7])	effect on β-catenin protein content [8]	also measured
CC[C@H](C)[C@@H]1NC(=O)[C@H](CCCCN)NC(=O)[C@H](CO)NC(=O)[C@H](Cc2c[nH]c3ccccc23)NC(=O)[C@H](Cc2ccccc2)NC(=O)[C@H](Cc2c[nH]cn2)NC(=O)[C@H](CCCNC(=N)N)NC(=O)[C@H](C)NC(=O)[C@H](CS)NC(=O)[C@@H](N)CSSC[C@@H](C(=O)O)NC1=O [Pep-4] (H-CCARHFWSKIC-OH; disulfide 1-11)	significantly higher	significantly higher	reduced	did not change	reduced	reduced	reduced	did not change	reduced	reduced	have not changed	have not changed	have not changed	have not changed	20%	20%			
NSSSLSSGSGNNANGNFLTYY [Pep-1]	significantly higher	significantly higher	did not change	did not change	did not change	did not change	did not change	did not change	did not change	did not change	did not change	did not change	did not change	did not change	no significant effect	no significant effect	significantly higher	no significant effect	
CC[C@H](C)[C@H](NC(=O)[C@H](CCC(=O)O)NC(=O)[C@H](CC(C)C)NC(=O)CNC(=O)[C@H](Cc1c[nH]cn1)NC(=O)[C@H](CO)NC(=O)CNC(=O)[C@H](CCCCN)NC(=O)[C@H](CCCNC(=N)N)NC(=O)[C@H](CCCNC(=N)N)NC(=O)[C@H](Cc1c[nH]cn1)NC(=O)[C@H](CCCCN)NC(=O)[C@@H](NC(=O)[C@H](CS)NC(=O)[C@@H](NC(=O)[C@@H](N)CCC(N)=O)C(C)C)[C@@H](C)O)C(=O)N[C@@H](Cc1ccccc1)C(=O)N[C@@H](CCC(N)=O)C(=O)N[C@@H](CCCNC(=N)N)C(=O)N[C@@H](CS)C(=O)N[C@@H](Cc1ccc(O)cc1)C(=O)O [Pep-2] (H-QVCTKHRRKGSHGLEIFQRCY-OH; N-terminus and C-terminus assumed)		significantly higher	reduced	did not change	reduced	reduced	reduced	did not change	reduced	reduced	did not change	did not change	did not change	did not change	20%	20%	significantly higher		cell death rate of HCT116 compared with SW480 (HCT116 [7]; 1 mM): significantly higher
NGYITFQDGNDYFRFPLNN [Pep-3]			did not change	did not change	did not change	did not change	did not change	did not change	did not change	did not change	did not change	did not change	did not change	did not change	no significant effect	no significant effect		no significant effect	
B1			increasing	increasing	increasing	increasing	increasing	increasing	increasing	increasing	did not change	did not change	did not change	did not change					S and G2/M stage percentage (SW480 [9]): higher percentage; S and G2/M stage percentage (HCT116 [10]): higher percentage; S and G2/M stage percentage (HUVEC): higher percentage
B2			did not change	did not change	did not change	did not change	did not change	did not change	did not change	did not change	did not change	did not change	did not change	did not change					
